According to US6699854B2, “Anti-cancer compounds” (Cyclacel Limited, priority 2000, dated 2004):

Biological target: T1, CDK2/cyclin E (Homo sapiens, UniProt P24941)
T1 construct: His; made in house; host or cells: Sf9 insect cells (baculovirus)
Assay: CDK2/cyclin E kinase assay (GST-Rb phosphorylation);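 also: enzyme source: His-tagged CDK2/cyclin E co-expressed in Sf9 insect cells via baculovirus, then purified by metal-chelate chromatography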
Assay type: biochemical
Conditions: Table 2, further results for CDK2/cyclin E inhibition; read-out: CDK2/cyclin E

| IC50 [µM] | SMILES |
| --- | --- |
| 4.7 | O=[N+]([O-])c1cccc(Nc2nccc(-c3cc(Cl)sc3Cl)n2)c1 [Compound 9, {4-(2,5-Dichloro-thiophen-3-yl)-pyrimidin-2-yl}-(3-nitro-phenyl)-amine] |
| 0.02 | Cc1nc(C)c(-c2ccnc(Nc3ccc(F)cc3F)n2)s1 [Compound 22, (2,4-Difluoro-phenyl)-{4-(2,4-dimethyl-thiazol-5-yl)-pyrimidin-2-yl}-amine] |
| 1.7 | Cc1nc(C)c(-c2ccnc(Nc3cc(F)cc(F)c3)n2)s1 [Compound 23, (3,5-Difluoro-phenyl)-{4-(2,4-dimethyl-thiazol-5-yl)-pyrimidin-2-yl}-amine] |
| 0.94 ± 0.49 | Cc1nc(C)c(-c2ccnc(Nc3cccc(Br)c3)n2)s1 [Compound 30, (3-Bromo-phenyl)-{4-(2,4-dimethyl-thiazol-5-yl)-pyrimidin-2-yl}-amine] |
| 0.2 | Cc1nc(C)c(-c2ccnc(Nc3cccc(I)c3)n2)s1 [Compound 33, {4-(2,4-Dimethyl-thiazol-5-yl)-pyrimidin-2-yl}-(3-iodo-phenyl)-amine] |
| 0.5 ± 0.2 | Cc1nc(C)c(-c2ccnc(Nc3ccc(F)c(F)c3)n2)s1 [Compound 36, (3,4-Difluoro-phenyl)-{4-(2,4-dimethyl-thiazol-5-yl)-pyrimidin-2-yl}-amine] |
| 6.4 ± 0.1 | COc1ccccc1Nc1nccc(-c2sc(C)nc2C)n1 [Compound 37, {4-(2,4-Dimethyl-thiazol-5-yl)-pyrimidin-2-yl}-(2-methoxy-phenyl)-amine] |
| 0.01 | Cc1nc(C)c(-c2cc(Br)nc(Nc3cccc([N+](=O)[O-])c3)n2)s1 [Compound 54, {4-Bromo-6-(2,4-dimethyl-thiazol-5-yl)-pyrimidin-2-yl}-(3-nitro-phenyl)-amine] |
| 1.2 | CNc1nc(C)c(-c2ccnc(Nc3cccc(F)c3)n2)s1 [Compound 103, (3-Fluoro-phenyl)-{4-(4-methyl-2-methylamino-thiazol-5-yl)-pyrimidin-2-yl}-amine] |
| 0.8 | CNc1nc(C)c(-c2ccnc(Nc3cccc(Cl)c3)n2)s1 [Compound 108, (3-Chloro-phenyl)-{4-(4-methyl-2-methylamino-thiazol-5-yl)-pyrimidin-2-yl}-amine] |
| 1.4 | Cc1nc(N)sc1-c1ccnc(Nc2ccc(O)cc2)n1 [Compound 114, 4-{4-(2-Amino-4-methyl-thiazol-5-yl)-pyrimidin-2-ylamino}-phenol] |
| 0.7 | CCN(CC)CCOCc1cccc(Nc2nccc(-c3sc(C)nc3C)n2)c1 [Compound 118, {3-(2-Diethylamino-ethoxymethyl)-phenyl}-{4-(2,4-dimethyl-thiazol-5-yl)-pyrimidin-2-yl}-amine] |

Tested on: A549
Assay: 72-h MTT cytotoxicity assay, A549
Assay type: cell-based, human
Conditions: Homo sapiens, A549, read-out: A549
Method: Selected compounds from the above examples were subjected to a standard cellular proliferation assay using a range of different human tumour cell lines. Standard 72-h MTT (thiazolyl blue; 3-{4,5-dimethylthiazol-2-yl}-2,5-diphenyltetrazolium bromide) assays were performed (Haselsberger, K.; Peterson, D. C.; Thomas, D. G.; Darling, J. L. Anti Cancer Drugs 1996, 7, 331-8; Loveland, B. E.; Johns, T. G.; Mackay, I. R.; Vaillant, F.; Wang, Z. X.; Hertzog, P. J. Biochemistry International 1992, 27, 501-10). Human tumour cell lines were obtained from the ATCC (American Type Culture Collection, 10801 University Boulevard, Manessas, Va. 20110-2209, USA).

| SMILES | IC50 [µM] |
| --- | --- |
| CNc1nc(C)c(-c2ccnc(Nc3ccc(O)cc3)n2)s1 [Compound 63, 4-{4-(4-Methyl-2-methylamino-thiazol-5-yl)-pyrimidin-2-ylamino}-phenol] | 0.8 ± 0.2 |

Same assay, conditions: Homo sapiens, Table 4, additional data for cytotoxicity assay using the A549 cell line; read-out: A549

| SMILES | IC50 [µM] |
| --- | --- |
| Clc1cc(-c2ccnc(Nc3ccccc3Cl)n2)c(Cl)s1 [Compound 2, (2-Chloro-phenyl)-{4-(2,5-dichloro-thiophen-3-yl)-pyrimidin-2-yl}-amine] | 41 ± 8 |
| Clc1ccc(Nc2nccc(-c3cc(Cl)sc3Cl)n2)cc1 [Compound 3, (4-Chloro-phenyl)-{4-(2,5-dichloro-thiophen-3-yl)-pyrimidin-2-yl}-amine] | 5 ± 4 |
| Clc1cccc(Nc2nccc(-c3cc(Cl)sc3Cl)n2)c1 [Compound 4, (3-Chloro-phenyl)-{4-(2,5-dichloro-thiophen-3-yl)-pyrimidin-2-yl}-amine] | 16 ± 11 |
| Cc1nc(C)c(-c2ccnc(Nc3cccc(Cl)c3)n2)s1 [Compound 7, (3-Chloro-phenyl)-{4-(2,4-dimethyl-thiazol-5-yl)-pyrimidin-2-yl}-amine] | 2.8 |
| Cc1cc(-c2ccnc(Nc3ccccc3Cl)n2)c(C)s1 [Compound 15, (2-Chloro-phenyl)-{4-(2,5-dimethyl-thiophen-3-yl)-pyrimidin-2-yl}-amine] | 6 |
| Cc1nc(C)c(-c2ccnc(Nc3ccc(F)cc3F)n2)s1 [Compound 22, (2,4-Difluoro-phenyl)-{4-(2,4-dimethyl-thiazol-5-yl)-pyrimidin-2-yl}-amine] | 20 ± 1 |
| Cc1nc(C)c(-c2ccnc(Nc3cc(Cl)cc(Cl)c3)n2)s1 [Compound 24, (3,5-Dichloro-phenyl)-{4-(2,4-dimethyl-thiazol-5-yl)-pyrimidin-2-yl}-amine] | 5 |
| Cc1nc(C)c(-c2ccnc(Nc3ccc(Cl)cc3Cl)n2)s1 [Compound 25, (2,4-Dichloro-phenyl)-{4-(2,4-dimethyl-thiazol-5-yl)-pyrimidin-2-yl}-amine] | 1.5 |
| Cc1nc(C)c(-c2ccnc(Nc3cccc(C(F)(F)F)c3)n2)s1 [Compound 26, {4-(2,4-Dimethyl-thiazol-5-yl)-pyrimidin-2-yl}-(3-trifluoromethyl-phenyl)-amine] | 3.3 |
| Cc1nc(C)c(-c2ccnc(Nc3ccccc3C(F)(F)F)n2)s1 [Compound 27, {4-(2,4-Dimethyl-thiazol-5-yl)-pyrimidin-2-yl}-(2-trifluoromethyl-phenyl)-amine] | 3.8 |
| Cc1nc(C)c(-c2ccnc(Nc3cccc(Br)c3)n2)s1 [Compound 30, (3-Bromo-phenyl)-{4-(2,4-dimethyl-thiazol-5-yl)-pyrimidin-2-yl}-amine] | 6.4 ± 0.05 |
| Cc1nc(C)c(-c2ccnc(Nc3ccccc3I)n2)s1 [Compound 32, {4-(2,4-Dimethyl-thiazol-5-yl)-pyrimidin-2-yl}-(2-iodo-phenyl)-amine] | 23 |
| Cc1nc(C)c(-c2ccnc(Nc3cccc(I)c3)n2)s1 [Compound 33, {4-(2,4-Dimethyl-thiazol-5-yl)-pyrimidin-2-yl}-(3-iodo-phenyl)-amine] | 61 ± 55 |
| Cc1nc(C)c(-c2ccnc(Nc3cccc(F)c3)n2)s1 [Compound 35, {4-(2,4-Dimethyl-thiazol-5-yl)-pyrimidin-2-yl}-(3-fluoro-phenyl)-amine] | 4.2 |
| COc1ccccc1Nc1nccc(-c2sc(C)nc2C)n1 [Compound 37, {4-(2,4-Dimethyl-thiazol-5-yl)-pyrimidin-2-yl}-(2-methoxy-phenyl)-amine] | 25 |
| Cc1nc(C)c(-c2ccnc(Nc3cccc(O)c3)n2)s1 [Compound 40, 3-{4-(2,4-Dimethyl-thiazol-5-yl)-pyrimidin-2-ylamino}-phenol] | 0.3 |
| Cc1nc(C)c(-c2ccnc(Nc3ccc(O)cc3)n2)s1 [Compound 41, 4-{4-(2,4-Dimethyl-thiazol-5-yl)-pyrimidin-2-ylamino}-phenol] | 0.02 |
| Cc1nc(C)c(-c2ccnc(NS(=O)(=O)c3cccc([N+](=O)[O-])c3)n2)s1 [Compound 42, N-{4-(2,4-Dimethyl-thiazol-5-yl)-pyrimidin-2-yl}-3-nitro-benzenesulfonamide] | 56 |
| Cc1nc(C)c(-c2ccnc(Nc3cccc(N)c3)n2)s1 [Compound 47, N-{4-(2,4-Dimethyl-thiazol-5-yl)-pyrimidin-2-yl}-benzene-1,3-diamine] | 1.8 ± 1.4 |
| Cc1nc(-c2ccccc2)sc1-c1ccnc(Nc2ccc(F)c(F)c2)n1 [Compound 59, (3,4-Difluoro-phenyl)-{4-(4-methyl-2-phenyl-thiazol-5-yl)-pyrimidin-2-yl}-amine] | 22 ± 21 |
| Cc1nc(C)c(-c2cc(-c3ccc(C(F)(F)F)cc3)nc(Nc3ccc(Cl)cc3)n2)s1 [Compound 65, (4-Chloro-phenyl)-{4-(2,4-dimethyl-thiazol-5-yl)-6-(4-trifluoromethyl-phenyl)-pyrimidin-2-yl}-amine] | 55 ± 50 |
| COc1cc(-c2cc(-c3sc(C)nc3C)nc(Nc3ccc(F)cc3)n2)cc(OC)c1O [Compound 69, 4-{6-(2,4-Dimethyl-thiazol-5-yl)-2-(4-fluoro-phenylamino)-pyrimidin-4-yl}-2,6-dimethoxy-phenol] | 12 ± 5 |
| Cc1nc(C)c(-c2cc(-c3ccc(O)cc3)nc(Nc3ccc(F)cc3)n2)s1 [Compound 70, 4-{6-(2,4-Dimethyl-thiazol-5-yl)-2-(4-fluoro-phenylamino)-pyrimidin-4-yl}-phenol] | 3 ± 1 |
| CNc1nc(C)c(-c2ccnc(Nc3cccc(O)c3)n2)s1 [Compound 85, 3-{4-(4-Methyl-2-methylamino-thiazol-5-yl)-pyrimidin-2-ylamino}-phenol] | 0.4 |
| CCOC(=O)c1cc(Nc2nccc(-c3sc(C)nc3C)n2)ccc1Cl [Compound 92, 2-Chloro-5-{4-(2,4-dimethyl-thiazol-5-yl)-pyrimidin-2-ylamino}-benzoic acid ethyl ester] | 4.4 ± 3 |
| CCOC(=O)c1cccc(Cl)c1Nc1nccc(-c2sc(C)nc2C)n1 [Compound 93, 3-Chloro-2-{4-(2,4-dimethyl-thiazol-5-yl)-pyrimidin-2-ylamino}-benzoic acid ethyl ester] | 1.1 ± 1 |
| COc1ccc(Nc2nccc(-c3sc(C)nc3C)n2)c(O)c1 [Compound 95, 2-{4-(2,4-Dimethyl-thiazol-5-yl)-pyrimidin-2-ylamino}-5-methoxy-phenol] | 0.05 ± 0.03 |
| COC(=O)c1cc(Nc2nccc(-c3sc(C)nc3C)n2)ccc1Cl [Compound 99, 2-Chloro-5-{4-(2,4-dimethyl-thiazol-5-yl)-pyrimidin-2-ylamino}-benzoic acid methyl ester] | 3.7 ± 2.7 |
| COC(=O)c1ccc(Nc2nccc(-c3sc(C)nc3C)n2)cc1Cl [Compound 101, 2-Chloro-4-{4-(2,4-dimethyl-thiazol-5-yl)-pyrimidin-2-ylamino}-benzoic acid methyl ester] | 0.9 ± 0.2 |
| CNc1nc(C)c(-c2ccnc(Nc3ccc(F)c(F)c3)n2)s1 [Compound 104, (3,4-Difluoro-phenyl)-{4-(4-methyl-2-methylamino-thiazol-5-yl)-pyrimidin-2-yl}-amine] | 4.9 ± 2.5 |

Same assay, conditions: Table 4, additional data for cytotoxicity assay using the A549 cell line; read-out: A549

| SMILES | IC50 [µM] |
| --- | --- |
| Cc1nc(C)c(-c2cc(-c3ccccc3)nc(Nc3cccc([N+](=O)[O-])c3)n2)s1 [Compound 57, {4-(2,4-Dimethyl-thiazol-7-yl)-6-phenyl-pyrimidin-2-yl}-(3-nitro-phenyl)-amine] | 5.2 ± 0.4 |
| C=CCNc1nc(C)c(-c2ccnc(Nc3cccc([N+](=O)[O-])c3)n2)s1 [Compound 91, {4-(2-Allylamino-4-methyl-thiazol-5-yl)-pyrimidin-2-yl}-(3-nitro-phenyl)-amine] | 22.1 ± 0.2 |
